Assay results as given in patent US6855836B2, “17-Methylene steroids, process for their production and pharmaceutical compositions that contain these compounds” (Jenapharm GmbH & Co. KG, priority 2000, dated 2005).

Tests used:
5α-Reductase-Type 2 = molecular target: T1, 5α-Reductase-Type 2 (Homo sapiens, UniProt P31213); experiment: 5α-Reductase-type 2-activity in genital dermal homogenates; assay type: biochemical; conditions: optimized conditions at pH 5.5
T1 construct: 5α-Reductase-Type 2-Activity in Genital Dermal Homogenates; from tissue; host or cells: genital dermal (skin) homogenate
T1 sequence (P31213 1-254): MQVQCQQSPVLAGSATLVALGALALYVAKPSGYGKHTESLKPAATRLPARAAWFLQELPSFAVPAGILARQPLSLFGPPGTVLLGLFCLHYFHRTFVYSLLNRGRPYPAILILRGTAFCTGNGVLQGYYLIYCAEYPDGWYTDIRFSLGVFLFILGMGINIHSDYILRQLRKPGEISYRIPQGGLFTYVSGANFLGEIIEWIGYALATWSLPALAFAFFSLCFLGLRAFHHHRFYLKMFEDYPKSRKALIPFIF
Description: (§1) Data for 5α-reductase-type 2-activity in genital dermal homogenates and in vivo data for gestagenic activity are presented by way of example in Tables 1 and 2 below.

Progesterone-receptor = molecular target: T2, Progesterone-receptor (Oryctolagus cuniculus, UniProt P06186); experiment: Progesterone-receptor binding to uterus-cytosol, tracer 3H-ORG 2058; conditions: rabbits, primed, 0-4° C., 18 hours, reference progesterone = 100%
T2 construct: from tissue; host or cells: uterus cytosol of primed rabbits
T2 sequence (P06186 1-930): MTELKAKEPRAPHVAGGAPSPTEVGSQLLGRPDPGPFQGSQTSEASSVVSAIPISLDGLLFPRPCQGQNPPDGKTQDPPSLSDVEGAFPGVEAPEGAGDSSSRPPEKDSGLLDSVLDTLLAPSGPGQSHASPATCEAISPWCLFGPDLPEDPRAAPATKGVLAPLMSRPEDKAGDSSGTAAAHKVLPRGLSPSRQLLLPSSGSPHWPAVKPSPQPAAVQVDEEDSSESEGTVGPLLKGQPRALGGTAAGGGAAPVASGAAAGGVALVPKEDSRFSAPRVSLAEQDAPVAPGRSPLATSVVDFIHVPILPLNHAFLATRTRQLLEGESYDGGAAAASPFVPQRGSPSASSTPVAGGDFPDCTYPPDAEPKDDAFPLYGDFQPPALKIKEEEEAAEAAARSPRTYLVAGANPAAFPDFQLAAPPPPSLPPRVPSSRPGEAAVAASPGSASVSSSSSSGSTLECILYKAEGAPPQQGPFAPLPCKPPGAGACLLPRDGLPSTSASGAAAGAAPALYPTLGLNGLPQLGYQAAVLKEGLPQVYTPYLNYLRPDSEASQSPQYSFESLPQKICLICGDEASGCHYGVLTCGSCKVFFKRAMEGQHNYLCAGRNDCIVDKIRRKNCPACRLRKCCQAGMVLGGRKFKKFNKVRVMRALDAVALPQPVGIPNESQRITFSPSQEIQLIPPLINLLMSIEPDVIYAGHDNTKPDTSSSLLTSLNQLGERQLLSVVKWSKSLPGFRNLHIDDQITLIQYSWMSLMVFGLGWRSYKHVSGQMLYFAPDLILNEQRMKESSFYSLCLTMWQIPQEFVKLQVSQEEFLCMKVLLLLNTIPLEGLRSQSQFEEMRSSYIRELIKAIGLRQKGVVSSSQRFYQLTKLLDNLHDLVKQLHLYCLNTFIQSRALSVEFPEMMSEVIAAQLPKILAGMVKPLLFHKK

pregnancy maintenance = experiment: Mouse pregnancy maintenance test after s.c. administration (gestagenic activity); assay type: in vivo
Description: as §1

C[C@]12CC[C@H]3[C@@H](CCC4=C(Cl)C(=O)CC[C@@H]43)[C@@H]1CC/C2=C\Cl [Compound 1, E-17-Chloromethylene-4-chloro-estr-4-en-3-one] was tested, and the IC50 (5α-Reductase-Type 2) was 250 nM, the “PR, Progesterone = 100% (progesterone-receptor binding)” value (Progesterone-receptor) was 60% and the Pregnancy rate achieved (pregnancy maintenance; 0.1 mg/animal/day s.c.) was 0/5. For the same compound, the Pregnancy rate achieved (pregnancy maintenance; 1.0 mg/animal/day s.c.) was 5/5.
